The inhibition is the relative decrease from the control value, in per cent. A higher inhibition goes with strong suppression. One may read the IC50 as the concentration needed to halve the response being measured. Read a high IC50 as weaker potency in that assay.

The nature of data set [1]: Toxicity in brine shrimp. Type of data set: organism-based. As to conditions: artemia, in vivo; read-out: LD50 (the source's name).
The test system of data set [2] is CA46. The data set is described as follows: Cytotoxicity against human CA46 cells. Type of data set: functional, cell-based.
In data set [3] the test system is L1210. The data set is described as follows: Cytotoxicity against mouse L1210 cells. It is filed as functional, cell-based.
Data set [4] in a line: Displacement of [3H]colchicine from tubulin. As to conditions: concentration not given here. On the technique in general: Loss of bound radioactivity is the signal in a displacement assay; it reports binding, not function.
A short description of data set [5]: Inhibition of tubulin polymerization.

Consider `C=CC[C@@H](CC/C(C)=C/C=C\CC/C=C\[C@@H]1CSC([C@@H]2C[C@@H]2C)=N1)OC` [CURACIN B], for which the LC50 in data set [1] was determined as 38 nM. For the same compound, the Activity result in data set [2] and in data set [3] was “Toxic” each time.

Regarding `C=CC[C@@H](CC/C(C)=C\C=C\CC/C=C\[C@@H]1CSC([C@@H]2C[C@@H]2C)=N1)OC` [CURACIN C], in data set [1], the LC50 was 54 nM. Also, the Activity result in data set [2] and in data set [3] was “Toxic” each time.

In data set [4], `C=CC[C@@H](CC/C(C)=C/C=C/CC/C=C\[C@@H]1CSC([C@@H]2C[C@@H]2C)=N1)OC` [CURACIN A] gave an inhibition of 96%. In addition, the LC50 in data set [1] was 8 nM. Further, in data set [5], the IC50 is 1400 nM.

Source of the values: ChEMBL document CHEMBL1150103, “Curacins B and C, New Antimitotic Natural Products from the Marine Cyanobacterium Lyngbya majuscula” (J Nat Prod, 1995).
